Counter-ions that a name gives are not always drawn.
Assays:
[1] = system: mice with Escherichia coli-induced diarrhea; assay: Effect on mice with Escherichia coli-induced diarrhea (Example 6); assay type: in vivo; conditions: positive control, berberine hydrochloride 0.01 g/mL i.g. QD*7 days; Escherichia coli i.p. model
Method: Escherichia coli preserved on a slant was inoculated on a nutrient agar plate and cultured at 37° C. for 24 h. Several colonies were then picked, inoculated into MH broth, followed by another 24 hours of culture at 37° C. The culture was then diluted with sterilized normal saline and subjected to turbidity adjustment using a 0.5 Mcfarland turbidimetric tube, thus achieving a bacterial content of 3×10^8 CFU/mL.
Mice weighing about 20 g were selected, and each mouse was intraperitoneally injected with 0.2 mL of the Escherichia coli bacteria solution with a bacterial content of 3×10^8 CFU/mL for diarrhea induction. A positive control group received a 0.01 g/mL aqueous berberine hydrochloride solution administered intragastrically. The experimental grouping and procedures were the same as in Example 3. The mice were continuously observed for 5 h, and the diarrhea indices of the mice were recorded.

[2] = system: Cryptosporidium cuniculus; assay: Effect on diarrhea in rabbits infected with Cryptosporidium cuniculus, oocysts in stools (Example 12); assay type: in vivo, New Zealand white rabbits
Excerpt: A parasite-associated diarrhea model was constructed by intragastric administration of Cryptosporidium cuniculus oocysts (extracted from a single positive stool sample from a rabbit farm in Jilin) in New Zealand white rabbits. Subsequently, the Bacteroides fragilis live bacteria solution, inactivated bacteria powder and lysate solution (prepared in Example 2) were each used for treatment. The therapeutic effects of the Bacteroides fragilis live bacteria solution, inactivated bacteria powder and lysate solution were observed.
New Zealand white rabbits aged 35 days were selected and randomly divided into the following 6 groups: a blank group (group 1), a model group (group 2), a positive control group (nitazoxanide) (group 3), a Bacteroides fragilis inactivated bacteria powder group (group 4), a Bacteroides fragilis lysate solution group (group 5), and a Bacteroides fragilis live bacteria solution group (group 6), with 8 rabbits in each group. The New Zealand white rabbits in groups 2 to 6 were intragastrically inoculated with 1.5×10^4 Cryptosporidium cuniculus oocysts, and the blank group was intragastrically given normal saline. […] The stools were collected to prepare a stool suspension, and structures with oocysts were observed under a microscope, indicating successful modeling. Therefore, treatment could be carried out. The blank group was given normal saline, and the treatment groups were subjected to drug administration. The treatment was carried out twice daily for 7 consecutive days. The New Zealand white rabbits were observed daily for diarrhea condition. On day 1 of the treatment and at the end of the treatment, the stool samples were collected, and the number of oocysts was observed under a microscope.

SMILES | Diarrhea index [1] | Number of oocysts in stools (×10^6 oocysts/rabbit, mean ± SD) ([2]; D 1 of administration, i.g. Bid*7 days, nitazoxanide 10 mg/kg, Bacteroides fragilis 1 × 10^8 cells/mL) | Number of oocysts in stools (×10^6 oocysts/rabbit, mean ± SD) ([2]; D 2 of administration, doses as Table 23) | Number of oocysts in stools (×10^6 oocysts/rabbit, mean ± SD) ([2]; D 3 of administration, doses as Table 23) | Number of oocysts in stools (×10^6 oocysts/rabbit, mean ± SD) ([2]; D 4 of administration, doses as Table 23) | Number of oocysts in stools (×10^6 oocysts/rabbit, mean ± SD) ([2]; D 5 of administration, doses as Table 23) | Number of oocysts in stools (×10^6 oocysts/rabbit, mean ± SD) ([2]; D 6 of administration, doses as Table 23) | Number of oocysts in stools (×10^6 oocysts/rabbit, mean ± SD) ([2]; D 7 of administration, doses as Table 23) | total number of oocysts in the stools of each New Zealand rabbit during the treatment period ([2]; FIG. 5, P<0.0001, doses as Table 23)
COc1ccc2cc3[n+](cc2c1OC)CCc1cc2c(cc1-3)OCO2 [berberine hydrochloride] | 1.25 ± 0.13 |  |  |  |  |  |  |  | 
CC(=O)Oc1ccccc1C(=O)Nc1ncc([N+](=O)[O-])s1 [nitazoxanide] |  | 1.8 ± 0.6 ×10^6 oocysts/rabbit | 3.2 ± 1.5 ×10^6 oocysts/rabbit | 2.8 ± 0.9 ×10^6 oocysts/rabbit | 2.2 ± 0.2 ×10^6 oocysts/rabbit | 1.5 ± 1.1 ×10^6 oocysts/rabbit | 1.3 ± 0.1 ×10^6 oocysts/rabbit | 0.6 ± 0.2 ×10^6 oocysts/rabbit | significantly lower than that in the model group

— patent US20250099512A1, “USE OF BACTEROIDES FRAGILIS IN IMPROVEMENT AND TREATMENT OF DIARRHEA” (priority 2022, published 2025)
